Experimental data published in patent publication US9938292B2 (GUANGDONG ZHONGSHENG PHARMACEUTICAL CO., LTD, priority 2014, dated 2018).
Where two headings read alike, the source gives them in different places. One block for each molecule: values may come before it.

Tested on: Hedgehog signaling pathway
Test: Gli-Luc luciferase reporter gene assay in C3H10T1/2/Gli-Luc cells under Shh-N stimulation
Assay type: cell-based
Conditions: luciferase RLU, read-out: biological activity: IC50 of the inhibitory activities of compounds on the hedgehog pathway
Text: The luciferase (Gli-Luc) reporter gene with Gli response element was transfected into C3H10T1/2 cells, under Shh-N stimulation conditions, determine the Hedgehog signaling pathway inhibitors through the detection of gene expression in cell activity report. In this study, we evaluated the inhibitory effects of compounds on Hedgehog signaling pathway in the IC50 value of the compound as an index.
Cell lines: C3H10T1/2/Gli-Luc stable cell line • C3H10T1/2/Gli-Luc Cell culture medium (DMEM/high glucose HyClone, #SH30022.01B; 10% serum Hyclone, #SV30087; 0.4% Hygromycin B Roche, #13398200) • 0.25% Trypsin-EDTA (Gibco, #25200)
Shh-N, HEK293/SHH-N stable cell culture supernatant
Inoculate the logarithmic growth phase of C3H10T1/2/Gli-Luc cells into a 96-well culture plate with 20000 cells per well, cells were cultured in a 37° C., 5% CO2 incubator overnight. The next day, the compounds were diluted in the following ways: the positive compound GDC0449 (1 mM) and the compounds (1 mM) to be measured were serially diluted to 7 concentrations by DMSO according to 1:3 and 1:10 respectively, the eighth is for DMSO control, and then diluted with fresh medium 100 times. The medium of the cells cultured overnight was removed, 80 μL fresh culture medium was added per well, then 20 μL gradiently diluted positive compound and compounds to be measured and 100 μL 30 nM Shh-N containing conditioned medium were added, each concentration repeated 2 wells, at the same time, positive and negative reference well were set (i.e. Shh Ctrl: 80 μL fresh medium+20 μL 1% DMSO containing medium+100 μL 30 nM Shh-N containing conditioned medium; Unstimulated Ctrl: 180 μL fresh medium+20 μL 1% DMSO containing medium), cells were cultured in the incubator for further 24 h.
Intracellular luciferase activity detection: take the cells out of 96-well plate, discard the culture medium, the cells were washed with PBS twice, then each well added with 20 μL lysate (Promega E1531), oscillate pyrolysis at room temperature for 30 min. 5 μL cell lysates were transferred to 384-well plate (Greiner 781074), then each well was added with 25 μL luciferase reaction liquid (Promega E1501), after rapid mixed, immediately placed into the VarioSkan Flash multi-function reading instrument to read the relative light units (RLU) value.
Data analysis: using Prism's GraphPad 5 for data analysis. RLU reading to the logarithmic mapping of compound concentration on behalf of luciferase activity, and then curve fitting using the following equation to give IC50 value, Y (RLU)=minimum+(maximum−minimum)/(1+10^(log of compound concentration−Log IC50)).

SMILES: COc1c(-c2ccc(N3C[C@@H](C)O[C@@H](C)C3)cc2)cnc2c(-c3ccc(C#N)cc3)cncc12
IC50 (Mus musculus, C3H 10T1/2, 24 h): ≤ 50 nM

SMILES: Cc1cn(-c2ccc(N3C[C@H](C)C[C@@H](C)C3)cc2)c(=O)c2cccc(-c3ccc(C#N)cc3)c12 [Embodiment 1, 4-(2-(4-((3R,5R)-3,5-dimethylpiperidin-1-yl)phenyl)-4-methyl-1-oxo-1,2-dihydroisoquinolin-5-yl)benzonitrile]
IC50 (Mus musculus, C3H 10T1/2, 24 h): 100 to 500 nM

SMILES: Cc1cn(-c2ccc(N3CC(C)OC(C)C3)cc2)c(=O)c2cccc(-c3ccc(C#N)cc3)c12 (stereo not drawn) [Embodiment 2]
IC50 (Mus musculus, C3H 10T1/2, 24 h): 100 to 500 nM

SMILES: Cc1cn(-c2ccc(N3CC(C)CC(C)C3)cc2)c(=O)c2cccc(-c3ccc(C#N)cc3)c12 (stereo not drawn) [Embodiment 3]
IC50 (Mus musculus, C3H 10T1/2, 24 h): 100 to 500 nM

SMILES: Cc1cn(-c2ccc(N3CCOC(C)(C)C3)cc2)c(=O)c2cccc(-c3ccc(C#N)cc3)c12 [Embodiment 4]
IC50 (Mus musculus, C3H 10T1/2, 24 h): 100 to 500 nM

SMILES: COc1cccc(N2CCN(c3ccc(-n4cc(C)c5c(-c6ccc(C#N)cc6)cccc5c4=O)cc3)CC2(C)C)c1 [Embodiment 5]
IC50 (Mus musculus, C3H 10T1/2, 24 h): 100 to 500 nM

SMILES: Cc1cn(-c2ccc(N3CC4CC3CO4)cc2)c(=O)c2cccc(-c3ccc(C#N)cc3)c12 (stereo not drawn) [Embodiment 6]
IC50 (Mus musculus, C3H 10T1/2, 24 h): 500 to 1000 nM

SMILES: Cc1cn(-c2ccc(N3CC4CCC(C3)O4)cc2)c(=O)c2cccc(-c3ccc(C#N)cc3)c12 [Embodiment 7]
IC50 (Mus musculus, C3H 10T1/2, 24 h): 500 to 1000 nM

SMILES: Cc1cn(-c2ccc(N3CCOC(CN(C)C)C3)cc2)c(=O)c2cccc(-c3ccc(C#N)cc3)c12 (stereo not drawn) [Embodiment 9]
IC50 (Mus musculus, C3H 10T1/2, 24 h): 1000 to 5000 nM

SMILES: Cc1cn(-c2ccc(N3CCN4CCC[C@H]4C3)cc2)c(=O)c2cccc(-c3ccc(C#N)cc3)c12 [Embodiment 10]
IC50 (Mus musculus, C3H 10T1/2, 24 h): 100 to 500 nM

SMILES: Cc1cn(-c2ccc(N3CCN4CCCC4C3)cc2)c(=O)c2cccc(-c3ccc(C#N)cc3)c12 (stereo not drawn) [Embodiment 11]
IC50 (Mus musculus, C3H 10T1/2, 24 h): 100 to 500 nM

SMILES: Cc1cn(-c2ccc(NCCN3C[C@@H](C)O[C@@H](C)C3)cc2)c(=O)c2cccc(-c3ccc(C#N)cc3)c12 [Embodiment 12]
IC50 (Mus musculus, C3H 10T1/2, 24 h): 500 to 1000 nM

SMILES: Cc1cn(-c2ccc(N3CCN(c4nsc5ccccc45)CC3)cc2)c(=O)c2cccc(-c3ccc(C#N)cc3)c12 [Embodiment 13]
IC50 (Mus musculus, C3H 10T1/2, 24 h): 100 to 500 nM

SMILES: Cc1cn(-c2ccc(N3C[C@@H](C)N(C(=O)c4ccccc4)[C@H](C)C3)cc2)c(=O)c2cccc(-c3ccc(C#N)cc3)c12 [Embodiment 14, 4-(2-(4-((3R,5R)-4-benzoyl-3,5-dimethylpiperazin-1-yl)phenyl)-4-methyl-1-oxo-1,2-dihydroisoquinolin-5-yl)benzonitrile]
IC50 (Mus musculus, C3H 10T1/2, 24 h): 50 to 100 nM

SMILES: CCC(=O)N1CCN(c2ccc(-n3cc(C)c4c(-c5ccc(C#N)cc5)cccc4c3=O)cc2)CC1C (stereo not drawn) [Embodiment 17]
IC50 (Mus musculus, C3H 10T1/2, 24 h): 50 to 100 nM

SMILES: CCC(=O)N1CCN(c2ccc(-n3cc(C)c4c(-c5ccc(C#N)cc5)cccc4c3=O)cc2)CC1c1ccccc1 (stereo not drawn) [Embodiment 18]
IC50 (Mus musculus, C3H 10T1/2, 24 h): 100 to 500 nM

SMILES: Cc1cn(-c2ccc(N3C[C@@H](C)N(C(=O)c4ccccc4)[C@H](C)C3)cc2)c(=O)c2cccc(-c3ccc(C#N)cc3)c12 [Embodiment 21]
IC50 (24 h): 100 to 500 nM

SMILES: Cc1cn(-c2ccc(N3CC(C)N(C(=O)C4CC4)C(C)C3)cc2)c(=O)c2cccc(-c3ccc(C#N)cc3)c12 (stereo not drawn) [Embodiment 26]
IC50 (Mus musculus, C3H 10T1/2, 24 h): 50 to 100 nM

SMILES: Cc1cn(-c2ccc(N3CC(C)N(C(=O)c4ccccc4)C(C)C3)cc2)c(=O)c2cccc(-c3ccc(C#N)cc3)c12 (stereo not drawn) [Embodiment 27]
IC50 (Mus musculus, C3H 10T1/2, 24 h): ≤ 50 nM

SMILES: Cc1cn(-c2ccc(N3CC(C)N(C(=O)OC(C)C)C(C)C3)cc2)c(=O)c2cccc(-c3ccc(C#N)cc3)c12 (stereo not drawn) [Embodiment 29]
IC50 (Mus musculus, C3H 10T1/2, 24 h): 100 to 500 nM

SMILES: Cc1cn(-c2ccc(N3CC(C)N(S(=O)(=O)c4ccccc4)C(C)C3)cc2)c(=O)c2cccc(-c3ccc(C#N)cc3)c12 (stereo not drawn) [Embodiment 32]
IC50 (Mus musculus, C3H 10T1/2, 24 h): 100 to 500 nM

SMILES: Cc1cn(-c2ccc(N3CC(C)N(Cc4ccccc4)C(C)C3)cc2)c(=O)c2cccc(-c3ccc(C#N)cc3)c12 (stereo not drawn) [Embodiment 35]
IC50 (Mus musculus, C3H 10T1/2, 24 h): 100 to 500 nM

SMILES: Cc1cn(-c2ccc(N3CC(C)N(c4nccs4)C(C)C3)cc2)c(=O)c2cccc(-c3ccc(C#N)cc3)c12 (stereo not drawn) [Embodiment 38]
IC50 (Mus musculus, C3H 10T1/2, 24 h): ≤ 50 nM

SMILES: Cc1cn(-c2ccc(N3CC(C)(C)C(O)C(C)(C)C3)cc2)c(=O)c2cccc(-c3ccc(C#N)cc3)c12 [Embodiment 39, 4-(2-(4-(4-hydroxy-3,3,5,5-tetramethylpiperidin-1-yl)phenyl)-4-methyl-1-oxo-1,2-dihydroisoquinolin-5-yl)benzonitrile]
IC50 (Mus musculus, C3H 10T1/2, 24 h): ≤ 50 nM

SMILES: Cc1cn(-c2ccc(N3CCN4C(=O)CC[C@H]4C3)cc2)c(=O)c2cccc(-c3ccc(C#N)cc3)c12 [Embodiment 40, (S)-4-(4-methyl-1-oxo-2-(4-(6-oxo-hexahydropyrrolo[1,2-a]pyrazin-2(1H)-yl)phenyl)-1,2-dihydroisoquinolin-5-yl)benzonitrile]
IC50 (Mus musculus, C3H 10T1/2, 24 h): ≤ 50 nM

SMILES: Cc1cn(-c2ccc(N3Cc4nnc(C(F)(F)F)n4C(C)C3)cc2)c(=O)c2cccc(-c3ccc(C#N)cc3)c12 (stereo not drawn) [Embodiment 41, 4-(4-methyl-2-(4-(5-methyl-3-(trifluoromethyl)-5,6-dihydro-[1,2,4]triazolo[4,3-a]pyrazin-7(8H)-yl)phenyl)-1-oxo-1,2-dihydroisoquinolin-5-yl)benzonitrile]
IC50 (Mus musculus, C3H 10T1/2, 24 h): ≤ 50 nM

SMILES: Cc1cn(-c2ccc(N3CCN4C(=O)OCC4C3)cc2)c(=O)c2cccc(-c3ccc(C#N)cc3)c12 (stereo not drawn) [Embodiment 42, 4-(4-methyl-1-oxo-2-(4-(3-oxotetrahydro-1H-oxazolo[3,4-a]pyrazin-7(3H)-yl)phenyl)-1,2-dihydroisoquinolin-5-yl)benzonitrile]
IC50 (Mus musculus, C3H 10T1/2, 24 h): 100 to 500 nM

SMILES: Cc1cn(-c2ccc(N3C[C@@H](C)O[C@@H](C)C3)cc2)c(=O)c2cccc(-c3ccoc3)c12 [Embodiment 43, 2-(4-((2S,6R)-2,6-dimethylmorpholino)phenyl)-5-(furan-3-yl)-4-methylisoquinolin-1(2H)-one]
IC50 (Mus musculus, C3H 10T1/2, 24 h): 1000 to 5000 nM

More lines, now with the values ahead:

IC50 (Mus musculus, C3H 10T1/2, 24 h): 100 to 500 nM
SMILES: Cc1cn(-c2ccc(N3CC(C)NC(C)C3)cc2)c(=O)c2cccc(-c3ccc(C#N)cc3)c12 (stereo not drawn) [Embodiment 15]

IC50 (Mus musculus, C3H 10T1/2, 24 h): 100 to 500 nM
SMILES: Cc1cn(-c2ccc(N3CC(C)N(C(=O)OC(C)(C)C)C(C)C3)cc2)c(=O)c2cccc(-c3ccc(C#N)cc3)c12 (stereo not drawn) [Embodiment 16]

IC50 (Mus musculus, C3H 10T1/2, 24 h): 100 to 500 nM
SMILES: COC(=O)N1[C@H](C)CN(c2ccc(-n3cc(C)c4c(-c5ccc(C#N)cc5)cccc4c3=O)cc2)C[C@H]1C [Embodiment 19]

IC50 (Mus musculus, C3H 10T1/2, 24 h): 100 to 500 nM
SMILES: CCOC(=O)N1[C@H](C)CN(c2ccc(-n3cc(C)c4c(-c5ccc(C#N)cc5)cccc4c3=O)cc2)C[C@H]1C [Embodiment 20]

IC50 (Mus musculus, C3H 10T1/2, 24 h): 50 to 100 nM
SMILES: CC(=O)N1C(C)CN(c2ccc(-n3cc(C)c4c(-c5ccc(C#N)cc5)cccc4c3=O)cc2)CC1C (stereo not drawn) [Embodiment 22]

IC50 (Mus musculus, C3H 10T1/2, 24 h): 50 to 100 nM
SMILES: Cc1cn(-c2ccc(N3CC(C)N(C(=O)C(C)C)C(C)C3)cc2)c(=O)c2cccc(-c3ccc(C#N)cc3)c12 (stereo not drawn) [Embodiment 24]

IC50 (Mus musculus, C3H 10T1/2, 24 h): 50 to 100 nM
SMILES: Cc1cn(-c2ccc(N3CC(C)N(C(=O)C(C)(C)C)C(C)C3)cc2)c(=O)c2cccc(-c3ccc(C#N)cc3)c12 (stereo not drawn) [Embodiment 25]

IC50 (Mus musculus, C3H 10T1/2, 24 h): ≤ 50 nM
SMILES: COC(=O)N1C(C)CN(c2ccc(-n3cc(C)c4c(-c5ccc(C#N)cc5)cccc4c3=O)cc2)CC1C (stereo not drawn) [Embodiment 28]

IC50 (Mus musculus, C3H 10T1/2, 24 h): 100 to 500 nM
SMILES: CNC(=O)N1C(C)CN(c2ccc(-n3cc(C)c4c(-c5ccc(C#N)cc5)cccc4c3=O)cc2)CC1C (stereo not drawn) [Embodiment 30]

IC50 (Mus musculus, C3H 10T1/2, 24 h): 100 to 500 nM
SMILES: Cc1cn(-c2ccc(N3CC(C)N(S(C)(=O)=O)C(C)C3)cc2)c(=O)c2cccc(-c3ccc(C#N)cc3)c12 (stereo not drawn) [Embodiment 31]

IC50 (Mus musculus, C3H 10T1/2, 24 h): 100 to 500 nM
SMILES: Cc1cn(-c2ccc(N3CC(C)N(C)C(C)C3)cc2)c(=O)c2cccc(-c3ccc(C#N)cc3)c12 (stereo not drawn) [Embodiment 33, 4-(4-methyl-1-oxo-2-(4-(3,4,5-trimethylpiperazin-1-yl)phenyl)-1,2-dihydroisoquinolin-5-yl)benzonitrile]

IC50 (Mus musculus, C3H 10T1/2, 24 h): 100 to 500 nM
SMILES: CCN1C(C)CN(c2ccc(-n3cc(C)c4c(-c5ccc(C#N)cc5)cccc4c3=O)cc2)CC1C (stereo not drawn) [Embodiment 34]

IC50 (Mus musculus, C3H 10T1/2, 24 h): 100 to 500 nM
SMILES: Cc1cn(-c2ccc(N3CC(C)N(CC4CC4)C(C)C3)cc2)c(=O)c2cccc(-c3ccc(C#N)cc3)c12 (stereo not drawn) [Embodiment 36]

IC50 (Mus musculus, C3H 10T1/2, 24 h): 100 to 500 nM
SMILES: Cc1cn(-c2ccc(N3CC(C)N(CC(C)(C)O)C(C)C3)cc2)c(=O)c2cccc(-c3ccc(C#N)cc3)c12 (stereo not drawn) [Embodiment 37]
